Earlier results, collected in patent publication US20210361602A1, “DOSING METHODS FOR TREATING INFLAMMATORY BOWEL CONDITIONS” (priority 2020, published 2021).

Legend:
[1] = enema by prior methods, two patients; Campieri et al. FIG. 4
[2] = orally administered; De Vos et al.

Nc1ccc(O)c(C(=O)O)c1 [5-ASA, 5-aminosalicylic acid]
systemic (plasma) levels of 5-ASA after bowel movement [1]: dramatically lower | levels of 5-ASA in the colon after laxative or colonic lavage [2]: decreased
